Experimental data as given in US20250387360A1, “Methods and Compositions for Treatment of Addiction” (University of Connecticut, priority 2024, published 2025).

Key:
male C57BL/6J mice = experiment: 4-day DID binge-like ethanol drinking with SCFA supplementation in drinking water; type: in vivo, mouse; settings: 200 mM in drinking water 10 days, male mice n=21/group
Text: Male C57BL/6J mice, (RRID: IMSR_JAX: 000664), aged 6-8 weeks, were obtained from Jackson Laboratories (ME, U.S.A) for the study. The mice were housed individually under a reversed 12-hours light/dark cycle, with lights off from […] to 7:00 am. A minimum acclimation period of 2 weeks was provided for all animals before they were randomly assigned to their respective groups. Mice had free access to food (Irradiated chow, Teklad global 18% protein rodent diet, 2918, Inotiv, WI, U.S.A) and deionized water to acclimate to the testing environment. Body weight and daily food and fluid intake were monitored and noted for all animal experiments.
A standard 4-day drinking in the dark (DID) model was used to evaluate binge-like ethanol drinking patterns in mice. A 20% v/v ethanol solution was prepared by diluting 190-proof ethyl alcohol (Sigma, MO, U.S.A) with deionized water. During days 1-3, the water bottles were temporarily removed during the dark cycle of the mice, and the mice were provided with a tube containing the 20% v/v ethanol solution for a duration of two hours. On day four, the assessment of binge-like ethanol consumption took place, where the mice were given access to the 20% v/v ethanol solution for a period of four hours. The volume of fluid in the tube (read to the closest 100 μL) was measured immediately upon placement, and at two hours and four hours into the test. Following the completion of the four hours test, approximately 100 μL of blood was collected through cardiac puncture after CO2 euthanasia. Blood samples were subjected to centrifugation at 10,000 rpm for 10 minutes. The determination of blood ethanol concentrations (BEC) was performed using an Analox AMI Analyzer (Analox Instruments, MA, U.S.A). The quantity of ethanol consumed was then calculated as grams per kilogram of the mouse's body weight.
All SCFA were used in sodium salt form. Briefly, sodium acetate (Sigma, MO, U.S.A), sodium butyrate (Sigma, MO, U.S.A), sodium valerate (Ambeed, IL, U.S.A), and sodium chloride (NaCl; Sigma, Mo, U.S.A) were prepared at 200 mM concentration freshly in drinking water every two days. These concentrations were chosen based on earlier studies conducted in mice [Qi Y., et al., Sodium acetate regulates milk fat synthesis through the activation of GPR41/GPR43 signaling pathway. Frontiers in nutrition 2023, 10:1098715; Daien C I, et al., Gut-derived acetate promotes B10 cells with anti-inflammatory effects. JCI insight 2021, 6 (7)]. All SCFA and NaCl solutions were pH verified to control for acidity effects on daily consumption. SCFAs were given to mice via oral drinking for 10 consecutive days before any experiment, and this regimen was maintained throughout the entire experiment.
General statistical analysis (non-microbiome and non-RNAseq analysis) were conducted using GraphPad Prism 8 (GraphPad, CA, USA, RRID:SCR_002798). For the calculation of ethanol consumption during the DID procedure, it was expressed as grams of ethanol per kilogram of body weight (g/kg body weight), where 20% ethanol intake was determined as follows: multiplying the drinking volume by the ethanol percentage within that volume and the density of ethanol, and then dividing this by the mouse's body weight in kilograms. Normality of data distributions was tested by Shapiro-Wilk test and by Q-Q plots. Levene's test was used to test equality of variances across groups. Unpaired Student's t-tests were used to compare behavioral testing, GABA levels, and histone acetylation measurements between the sodium valerate and NaCl groups. To evaluate the impact of antibiotic cocktail administration on ethanol consumption and BEC between the groups receiving Abx and PBS at baseline and after treatment, a mixed ANOVA test was employed, given repeated measures from the same mouse from the two time points. Similarly, mixed ANOVA tests were applied to compare various SCFA levels before and after Abx administration.

C57BL/6J mice = experiment: Open field activity test (anxiety-like behavior); type: in vivo, mouse; settings: after 10 days supplementation, 10 min exploration, n=10 mice/group
Experimental: The open field activity test was conducted to assess the impact of sodium valerate supplementation on exploratory and anxiety-like behavior. This test is a widely used method for analyzing locomotor ability and anxiety-related emotional behaviors in C57BL/6J mice. The open field activity chamber, constructed from white Plexiglass and illuminated with daylight, had dimensions of 37.5 cm height×40 cm length×40 cm width. General locomotor activity was recorded for 10 min by an overhead camera and analyzed using an automated video tracking system (ANY-maze v.4.6, Stoelting, IL, U.S.A, RRID:SCR_014289). The primary variables of interest included the total distance traveled (cm), the number of entries in the center area (20 cm length×20 cm width), and the percentage of time spent in the center area of the open field.
The effects of sodium valerate and NaCl was examined on anxiety-like behavior (n=10 mice/group) after 10 days of supplementation by open-field activity test.

`CCCCC(=O)[O-].[Na+]` [sodium valerate] was tested, and the BEC lowered (male C57BL/6J mice; vs NaCl) was 53%, the “reduction in ethanol consumption” value (male C57BL/6J mice; vs NaCl) was 40% and the “ethanol consumption, median” value (male C57BL/6J mice; NaCl control 7.16) was 4.03 g/kg body weight. The distance travelled (C57BL/6J mice) was “did not lead to a significant change”, the “number of entries in center (mean±SD)” value (C57BL/6J mice; p=0.01 vs NaCl) was 57.50±5.48 and the “percentage of time spent in center area (mean±SD)” value (C57BL/6J mice; p=0.03 vs NaCl) was 15.29±4.82.
